Where no end group is shown, it is not given here. The star is where a group is joined. Myristoyl = CCCCCCCCCCCCCC(=O)*
Test system: Mut-p53
Experiment: Total activity score over combined assays (Table 8)
Design: scale not given here
Conditions: for Activity Score: Table 10 summary of activity of the peptides tested; for AS (Activity Score): total score of Table 7; for Conformation, activity score / PCR, activity score: Table 8; for Conformation, activity score: the 14 score columns c4-c17 stand under the heads Conformation, DNA binding, Viability, PCR; for PCR, activity score: head span not shown
Text: Several alternative and complementary methods to screen lead peptide candidates for conformational and functional effects on Mut-p53 were employed. For increased penetration of peptide across cell membranes each peptide contains 3-6 Arginine residues either as part of its sequence or added either at its N-terminus or its C-terminus. […] In-vitro based assays for evaluation were first performed, such as ELISA for assessment of p53 conformation and sequence-specific DNA binding of p53.

| Substance | Activity Score | AS (Activity Score) | Conformation, activity score | PCR, activity score |
| --- | --- | --- | --- | --- |
| pCAP18 (SHQVHTHHNN) | 6 | 6 | – | – |
| pCAP176 (HPWTH) | 0 | 0 | – | – |
| pCAP63 (HNHHHSQHTPQH) | 9 | 9 | – | – |
| pCAP73 (SCRCRLRGDRGDR) | 0 | 0 | – | – |
| pCAP100 (FPGHTIH) | 19 | 19 | – | – |
| pCAP277 (DQPYPHRRIR) | 3 | – | – | – |
| pCAP83 (HSSHHHPVHSWN) | 25 | 25 | – | – |
| pCAP292 (YDELYQKEDPHRRR) | 0 | – | – | – |
| pCAP301 (Myristoyl-IRGRIRIIRRIR) | 12 | – | – | – |
| pCAP208 (RRIRSGGKDHAWTPLHENH) | 0 | – | – | – |
| pCAP149 (FPGHTIHRRRRRRRRRRR) | 13 | 13 | – | – |
| pCAP20 (HHPWTHHQRWS) | 13 | 13 | – | – |
| pCAP133 (SLLIGFGIIRSRRRRRRRR) | 10 | 10 | – | – |
| pCAP278 (RRYDTVIDDIEYRR) | 6 | – | – | – |
| pCAP284 (Myristoyl-RHDTHNAHIRR) | 6 | – | – | – |
| pCAP172 (EFHS) | 0 | 0 | – | – |
| pCAP128 (CILRLWW) | 19 | 19 | – | – |
| pCAP286 (HDFHDYLERR) | 4 | – | – | – |
| pCAP115 (HPHNHTVHNVVY) | 3 | 3 | – | – |
| pCAP273 (RDFHTIHPSISRR) | 3 | – | – | – |
| pCAP318 (RPEFHSFHPIYERR) | 6 | – | – | – |
| pCAP263 (YDDEHNHHPHHSTHRRR) | 0 | – | – | – |
| pCAP79 (SVHHHHRMHLVA) | 0 | 0 | – | – |

| Substance | Activity Score | AS (Activity Score) | Conformation, activity score | PCR, activity score |
| --- | --- | --- | --- | --- |
| pCAP153 (YWSAPQPATRRRRRRRRRRR) | 6 | 6 | – | – |
| pCAP38 (WTLSNYL) | 2 | 2 | – | – |
| pCAP212 (Myristoyl-REEETILIIRRR) | 3 | – | – | – |
| pCAP130 (EVTFRHSVVRRRRRRRRRRR) | 13 | 13 | – | – |
| pCAP16 (LPNPPERHH) | 24 | 24 | – | – |
| pCAP44 (VPHIHEFT) | 16 | 16 | – | – |
| pCAP174 (HSTPHP) | 54 | 54 | – | – |
| pCAP274 (LRDPHPPERRIR) | 0 | – | – | – |
| pCAP268 (TPSYGHTPSHHRRR) | 12 | – | 3 | – |
| pCAP315 (LHFSHIDRR) | 9 | – | – | – |
| pCAP78 (GESFVQHVFRQN) | 0 | 0 | – | – |
| pCAP6 (LGIDEDEETETAPE) | 5 | 5 | – | – |
| pCAP314 (RSTPHIHEFIRR) | 3 | – | – | – |
| pCAP164 (PLTLI) | 0 | 0 | – | – |
| pCAP139 (MHPPDWYHHTPKRRRRRR) | 12 | 12 | – | – |
| pCAP144 (SFILFIRRGRLGRRRRRRRRR) | 49 | 49 | – | – |
| pCAP163 (LTLS) | 4 | 4 | – | – |
| pCAP254 (NHFDYDTIELDTAGEYSRRR) | 0 | – | – | – |
| pCAP319 (SHDFYPHWMRERIR) | 3 | – | – | – |
| pCAP281 (Myristoyl-RDFILFIRRLGRR) | 3 | – | – | – |
| pCAP260 (RRTFIRHRIDSTEVIYQDED) | 0 | – | 4 | 6 |
| pCAP209 (HTPHPPVARTSPLQTPRR) | 0 | – | – | – |
| pCAP126 (RRLRICV) | 0 | 0 | – | – |

| Substance | Activity Score | AS (Activity Score) | Conformation, activity score | PCR, activity score |
| --- | --- | --- | --- | --- |
| pCAP240 (TEQHHYIPHRRR) | 3 | – | – | – |
| pCAP27 (VHEVTHHWL) | 5 | 5 | – | – |
| pCAP288 (THDFDRLLRIRRR) | 6 | – | – | – |
| pCAP303 (IVEFRIRR) | 3 | – | – | – |
| pCAP85 (KLTIHHH) | 0 | 0 | – | – |
| pCAP245 (NHITNGGEEDSDCSSRRRRL) | 8 | – | – | – |
| pCAP244 (RRVSELQRNKHGRKHEL) | 5 | – | – | – |
| pCAP142 (TLYLPHWHRHRRRRRRRRRR) | 14 | 14 | – | – |
| pCAP166 (KPPER) | 0 | 0 | – | – |
| pCAP227 (Myristoyl-RRKILFIRLMHNKH) | 67 | – | 4 | 4 |
| pCAP32 (TSPLQSLK) | 4 | 4 | – | – |
| pCAP261 (RRRQPLPSAPENEE) | 5 | – | – | – |
| pCAP276 (RRVDIHDGQRR) | 3 | – | – | – |
| pCAP56 (ATPFHQT) | 5 | 5 | – | – |
| pCAP23 (IRILMFLIGCGR) | 22 | 22 | – | – |
| pCAP59 (FLIRRSG) | 9 | 9 | – | – |
| pCAP95 (HQIHRNHTY) | 8 | 8 | – | – |
| pCAP304 (Myristoyl-RRIRILMFLIGCGRV) | 0 | – | – | – |
| pCAP253 (TGKTFVKRHLTEFEKKYR) | 0 | – | – | – |
| pCAP230 (RKRGKSYAFFVPPSESKERW) | 63 | – | 3 | 6 |
| pCAP233 (SHYHTPQNPPSTRRR) | 11 | – | – | – |
| pCAP270 (SPHPPY) | 0 | – | – | – |
| pCAP312 (RRPRIPDYIL) | 3 | – | – | – |

| Substance | Activity Score | AS (Activity Score) | Conformation, activity score | PCR, activity score |
| --- | --- | --- | --- | --- |
| pCAP236 (RRRSTNTFLGEDFDQ) | 0 | – | – | – |
| pCAP66 (THFSHHLKGGGRRQRRRP) | 2 | 2 | – | – |
| pCAP156 (VPHIHEFTRRRRRRRR) | 0 | 0 | – | – |
| pCAP214 (RRRESEQRSISLHHHST) | 2 | – | – | – |
| pCAP103 (LRRQLQL) | 3 | 3 | – | – |
| pCAP117 (DHSKFVPLFVRQ) | 3 | 3 | – | – |
| pCAP308 (Myristoyl-RRICRFIRICRVR; cysteine pairing not given here) | 40 | – | – | 6 |
| pCAP317 (RRDIHTIHPFYQ) | 43 | – | 5 | 3 |
| pCAP320 (EPSHPRSRYPRTF) | 0 | – | – | – |
| pCAP106 (LIRRCSLQR) | 8 | 8 | – | – |
| pCAP19 (NPNTYVPHWMRQ) | 0 | 0 | – | – |
| pCAP80 (HLHKHHYKDSRM) | 9 | 9 | – | – |
| pCAP55 (FLLPEPDENTRW) | 8 | 8 | – | – |
| pCAP2 (VWVHDSCHANLQNYRNYLLP) | 2 | 2 | – | – |
| pCAP259 (Myristoyl-RTLIGIIRSHHLTLIRR) | 25 | – | – | 2 |
| pCAP322 (RRIRDPQIK(Myristoyl)LEIHFSHID; not fully specified; printed as RRIRDPQIK-myrLEIHFSHID) | 0 | – | – | – |
| pCAP216 (Myristoyl-HFNHYTFESTCRRRRC; cysteine pairing not given here) | 2 | – | – | – |
| pCAP7 (SPLQTPAAPGAAAGPALSPV) | 6 | 6 | – | – |
| pCAP45 (HDTHNAHVG) | 0 | 0 | – | – |
| pCAP1 (EVTFRHSVV) | 32 | 32 | – | – |
| pCAP266 (HHRLSYFIVRRHSTHASR) | 2 | – | – | – |
| pCAP207 (RRSRSNEDVEDKTEDE) | 0 | – | – | – |
| pCAP267 (KRGGRKRRGGGHRLSYFIRR) | 28 | – | 3 | 2 |

| Substance | Activity Score | AS (Activity Score) | Conformation, activity score | PCR, activity score |
| --- | --- | --- | --- | --- |
| pCAP311 (EIHTIHLLPERR) | 0 | – | – | – |
| pCAP137 (GAMHLPWHMGTRRRRRR) | 8 | 8 | – | – |
| pCAP247 (RRITEIRGRTGKTTLTYIED) | 6 | – | – | – |
| pCAP34 (SILTLSRIVLGWW) | 14 | 14 | – | – |
| pCAP305 (IREFDPRRIR) | 4 | – | – | – |
| pCAP124 (VMVLFRILRGSM) | 2 | 2 | – | – |
| pCAP28 (HTDSHPHHHHPH) | 24 | 24 | – | – |
| pCAP15 (THFSHHLKH) | 12 | 12 | – | – |
| pCAP74 (IRGRIIRRKKRRQRRRRGDR) | 6 | 6 | – | – |
| pCAP77 (SEYLCSSLDAAG) | 0 | 0 | – | – |
| pCAP302 (LRIEPIRIR) | 6 | – | – | – |
| pCAP112 (TTSHHPK) | 2 | 2 | – | – |
| pCAP294 (FKPERFPQNDRRR) | 0 | – | – | – |
| pCAP11 (EWKERLDKEFSLSVYQKMKF) | 16 | 16 | – | – |
| pCAP321 (RNIIIRDFIHFSHIDR) | 0 | – | – | – |
| pCAP313 (Myristoyl-RRREILHPEFRILYE) | 8 | – | – | – |
| pCAP110 (LFILVFR) | 2 | 2 | – | – |
| pCAP280 (Myristoyl-RYRRLILEIWRR) | 6 | – | – | – |
| pCAP96 (GTVDHHA) | 0 | 0 | – | – |
| pCAP116 (KHHPFDHRLGNQ) | 0 | 0 | – | – |
| pCAP101 (IRFILIR) | 3 | 3 | – | – |

Reference: patent US11028127B2, “Peptides capable of reactivating p53 mutants” (Yeda Research and Development Co. Ltd., priority 2013, dated 2021)
